Reference: ChEMBL document CHEMBL1150977, “A quantitative analysis of kinase inhibitor selectivity” (Nat Biotechnol, 2008)

target: Angiopoietin-1 receptor (Homo sapiens, UniProt Q02763)
Sequence (Q02763 whole entry): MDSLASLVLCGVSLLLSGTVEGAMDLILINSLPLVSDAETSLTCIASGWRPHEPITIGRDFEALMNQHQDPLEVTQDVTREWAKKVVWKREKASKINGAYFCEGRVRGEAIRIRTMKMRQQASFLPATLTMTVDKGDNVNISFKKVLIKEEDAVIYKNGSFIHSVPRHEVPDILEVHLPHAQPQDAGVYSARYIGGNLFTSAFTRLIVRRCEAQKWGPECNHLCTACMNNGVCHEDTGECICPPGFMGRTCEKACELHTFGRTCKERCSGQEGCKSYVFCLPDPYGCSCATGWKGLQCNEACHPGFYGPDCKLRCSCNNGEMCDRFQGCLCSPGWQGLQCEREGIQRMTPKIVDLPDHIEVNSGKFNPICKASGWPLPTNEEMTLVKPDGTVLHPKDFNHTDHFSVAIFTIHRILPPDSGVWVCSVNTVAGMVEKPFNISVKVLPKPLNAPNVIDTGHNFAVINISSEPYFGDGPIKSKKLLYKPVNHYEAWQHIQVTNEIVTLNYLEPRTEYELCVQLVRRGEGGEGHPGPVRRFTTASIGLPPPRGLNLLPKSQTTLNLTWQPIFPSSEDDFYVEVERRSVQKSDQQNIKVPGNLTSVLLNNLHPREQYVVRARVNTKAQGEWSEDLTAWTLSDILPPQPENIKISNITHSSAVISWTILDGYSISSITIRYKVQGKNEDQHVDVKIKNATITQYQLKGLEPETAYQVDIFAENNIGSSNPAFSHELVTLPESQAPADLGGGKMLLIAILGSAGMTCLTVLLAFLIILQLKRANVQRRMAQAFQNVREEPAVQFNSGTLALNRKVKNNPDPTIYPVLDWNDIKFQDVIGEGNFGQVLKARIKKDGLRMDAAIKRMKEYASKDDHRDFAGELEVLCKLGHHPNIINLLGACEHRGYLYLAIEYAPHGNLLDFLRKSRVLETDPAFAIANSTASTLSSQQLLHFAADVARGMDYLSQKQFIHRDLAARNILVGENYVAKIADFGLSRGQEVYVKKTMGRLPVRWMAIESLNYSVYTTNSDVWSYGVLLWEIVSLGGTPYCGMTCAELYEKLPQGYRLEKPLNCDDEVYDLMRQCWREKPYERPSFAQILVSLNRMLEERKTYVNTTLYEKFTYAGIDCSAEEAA

SMILES	Kd [µM]
CCOc1cc2ncc(C#N)c(Nc3ccc(F)c(Cl)c3)c2cc1NC(=O)/C=C/CN(C)C [PELITINIB]	> 10
Oc1ccc(-c2nc(-c3ccncc3)c(-c3ccc(F)cc3)[nH]2)cc1 [SB-202190]	> 10
COCC(=O)NC/C=C/c1ccc2ncnc(Nc3ccc(Oc4ccc(C)nc4)c(C)c3)c2c1 [CP-724714]	> 10
NC(=O)c1ccc(-c2nc(-c3ccc4c(c3)OCO4)c(-c3ccccn3)[nH]2)cc1 [SB-431542]	> 10

target: Cyclin-dependent kinase 3 (Homo sapiens, UniProt Q00526)
Sequence (Q00526 whole entry): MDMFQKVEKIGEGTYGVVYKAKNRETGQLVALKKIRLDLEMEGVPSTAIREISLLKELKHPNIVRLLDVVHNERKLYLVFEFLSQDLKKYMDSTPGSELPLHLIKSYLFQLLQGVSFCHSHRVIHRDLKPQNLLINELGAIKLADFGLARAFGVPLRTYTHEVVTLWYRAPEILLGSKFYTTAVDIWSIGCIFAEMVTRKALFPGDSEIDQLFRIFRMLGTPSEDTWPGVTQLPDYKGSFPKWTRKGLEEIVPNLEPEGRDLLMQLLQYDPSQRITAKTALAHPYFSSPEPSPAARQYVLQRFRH

SMILES	Kd [µM]
CCOc1cc2ncc(C#N)c(Nc3ccc(F)c(Cl)c3)c2cc1NC(=O)/C=C/CN(C)C [PELITINIB]	> 10
Oc1ccc(-c2nc(-c3ccncc3)c(-c3ccc(F)cc3)[nH]2)cc1 [SB-202190]	> 10
COCC(=O)NC/C=C/c1ccc2ncnc(Nc3ccc(Oc4ccc(C)nc4)c(C)c3)c2c1 [CP-724714]	> 10
NC(=O)c1ccc(-c2nc(-c3ccc4c(c3)OCO4)c(-c3ccccn3)[nH]2)cc1 [SB-431542]	> 10
CCN1CCN(Cc2ccc(NC(=O)Nc3ccc(Oc4cc(NC)ncn4)cc3)cc2C(F)(F)F)CC1 [AST-487]	0.082

target: T1, Phosphorylase b kinase gamma catalytic chain, liver/testis isoform (Homo sapiens, UniProt P15735)
T1 sequence (P15735 whole entry): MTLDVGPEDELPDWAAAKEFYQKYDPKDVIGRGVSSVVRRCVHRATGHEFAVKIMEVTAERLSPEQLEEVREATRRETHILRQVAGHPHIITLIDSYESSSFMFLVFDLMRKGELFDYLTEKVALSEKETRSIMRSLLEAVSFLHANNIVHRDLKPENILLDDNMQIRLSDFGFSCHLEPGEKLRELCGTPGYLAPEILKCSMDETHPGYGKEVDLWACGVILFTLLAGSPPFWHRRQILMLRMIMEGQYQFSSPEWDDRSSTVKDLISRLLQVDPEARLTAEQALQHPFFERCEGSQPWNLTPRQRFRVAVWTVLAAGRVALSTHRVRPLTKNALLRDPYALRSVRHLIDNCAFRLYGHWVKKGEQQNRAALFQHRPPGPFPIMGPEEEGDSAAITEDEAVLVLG

SMILES	Kd [µM]
CCOc1cc2ncc(C#N)c(Nc3ccc(F)c(Cl)c3)c2cc1NC(=O)/C=C/CN(C)C [PELITINIB]	> 10
Nc1nc(Nc2ccc(S(N)(=O)=O)cc2)nn1C(=O)c1c(F)cccc1F [JNJ-7706621]	> 10
Oc1ccc(-c2nc(-c3ccncc3)c(-c3ccc(F)cc3)[nH]2)cc1 [SB-202190]	> 10
COCC(=O)NC/C=C/c1ccc2ncnc(Nc3ccc(Oc4ccc(C)nc4)c(C)c3)c2c1 [CP-724714]	> 10
NC(=O)c1ccc(-c2nc(-c3ccc4c(c3)OCO4)c(-c3ccccn3)[nH]2)cc1 [SB-431542]	> 10

target: Tyrosine-protein kinase ABL1 (Homo sapiens, UniProt P00519, M351T)

SMILES	Kd [µM]
Oc1ccc(-c2nc(-c3ccncc3)c(-c3ccc(F)cc3)[nH]2)cc1 [SB-202190]	> 10
COCC(=O)NC/C=C/c1ccc2ncnc(Nc3ccc(Oc4ccc(C)nc4)c(C)c3)c2c1 [CP-724714]	> 10
NC(=O)c1ccc(-c2nc(-c3ccc4c(c3)OCO4)c(-c3ccccn3)[nH]2)cc1 [SB-431542]	> 10

target: T2, Ankyrin repeat and protein kinase domain-containing protein 1 (Homo sapiens, UniProt Q8NFD2)
T2 sequence (Q8NFD2 whole entry): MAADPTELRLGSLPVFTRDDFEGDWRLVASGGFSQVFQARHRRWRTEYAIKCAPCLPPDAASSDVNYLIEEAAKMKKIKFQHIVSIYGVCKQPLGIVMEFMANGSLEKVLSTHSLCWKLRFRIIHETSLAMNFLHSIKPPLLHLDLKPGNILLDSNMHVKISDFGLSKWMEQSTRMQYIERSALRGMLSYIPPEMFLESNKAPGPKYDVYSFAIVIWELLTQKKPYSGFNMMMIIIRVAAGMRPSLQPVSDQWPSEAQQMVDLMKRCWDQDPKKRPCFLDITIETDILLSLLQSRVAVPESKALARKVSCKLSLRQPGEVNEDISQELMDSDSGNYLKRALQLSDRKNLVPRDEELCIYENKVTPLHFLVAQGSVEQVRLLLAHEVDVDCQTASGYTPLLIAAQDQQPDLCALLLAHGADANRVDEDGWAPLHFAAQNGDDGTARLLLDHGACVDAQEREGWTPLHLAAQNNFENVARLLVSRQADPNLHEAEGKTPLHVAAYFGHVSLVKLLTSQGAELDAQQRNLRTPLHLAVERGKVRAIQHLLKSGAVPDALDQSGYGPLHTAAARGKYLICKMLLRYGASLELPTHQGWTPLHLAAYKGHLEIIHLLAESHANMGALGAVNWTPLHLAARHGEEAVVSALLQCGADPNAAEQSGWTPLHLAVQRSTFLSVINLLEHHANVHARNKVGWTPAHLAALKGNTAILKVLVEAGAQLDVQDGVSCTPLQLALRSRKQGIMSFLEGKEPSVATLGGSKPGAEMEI

SMILES	Kd [µM]
CCOc1cc2ncc(C#N)c(Nc3ccc(F)c(Cl)c3)c2cc1NC(=O)/C=C/CN(C)C [PELITINIB]	> 10
Oc1ccc(-c2nc(-c3ccncc3)c(-c3ccc(F)cc3)[nH]2)cc1 [SB-202190]	> 10
COCC(=O)NC/C=C/c1ccc2ncnc(Nc3ccc(Oc4ccc(C)nc4)c(C)c3)c2c1 [CP-724714]	> 10
NC(=O)c1ccc(-c2nc(-c3ccc4c(c3)OCO4)c(-c3ccccn3)[nH]2)cc1 [SB-431542]	> 10

target: Calcium/calmodulin-dependent protein kinase type II subunit alpha (Homo sapiens, UniProt Q9UQM7)
Sequence (Q9UQM7 whole entry): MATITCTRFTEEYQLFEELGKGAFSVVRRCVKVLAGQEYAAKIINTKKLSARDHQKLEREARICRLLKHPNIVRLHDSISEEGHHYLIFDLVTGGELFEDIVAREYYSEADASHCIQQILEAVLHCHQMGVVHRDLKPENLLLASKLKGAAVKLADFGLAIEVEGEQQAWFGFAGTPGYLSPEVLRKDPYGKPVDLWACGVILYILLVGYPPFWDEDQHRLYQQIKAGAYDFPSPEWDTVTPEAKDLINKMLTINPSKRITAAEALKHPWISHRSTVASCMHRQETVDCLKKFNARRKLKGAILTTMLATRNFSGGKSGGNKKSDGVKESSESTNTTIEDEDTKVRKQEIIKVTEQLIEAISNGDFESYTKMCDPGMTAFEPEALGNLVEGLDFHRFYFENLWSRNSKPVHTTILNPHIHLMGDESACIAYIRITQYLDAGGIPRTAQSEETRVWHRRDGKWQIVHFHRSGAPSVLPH

SMILES	Kd [µM]
CCOc1cc2ncc(C#N)c(Nc3ccc(F)c(Cl)c3)c2cc1NC(=O)/C=C/CN(C)C [PELITINIB]	> 10
Oc1ccc(-c2nc(-c3ccncc3)c(-c3ccc(F)cc3)[nH]2)cc1 [SB-202190]	> 10
COCC(=O)NC/C=C/c1ccc2ncnc(Nc3ccc(Oc4ccc(C)nc4)c(C)c3)c2c1 [CP-724714]	> 10
NC(=O)c1ccc(-c2nc(-c3ccc4c(c3)OCO4)c(-c3ccccn3)[nH]2)cc1 [SB-431542]	> 10

target: RAC-alpha serine/threonine-protein kinase (Homo sapiens, UniProt P31749)
Sequence (P31749 whole entry): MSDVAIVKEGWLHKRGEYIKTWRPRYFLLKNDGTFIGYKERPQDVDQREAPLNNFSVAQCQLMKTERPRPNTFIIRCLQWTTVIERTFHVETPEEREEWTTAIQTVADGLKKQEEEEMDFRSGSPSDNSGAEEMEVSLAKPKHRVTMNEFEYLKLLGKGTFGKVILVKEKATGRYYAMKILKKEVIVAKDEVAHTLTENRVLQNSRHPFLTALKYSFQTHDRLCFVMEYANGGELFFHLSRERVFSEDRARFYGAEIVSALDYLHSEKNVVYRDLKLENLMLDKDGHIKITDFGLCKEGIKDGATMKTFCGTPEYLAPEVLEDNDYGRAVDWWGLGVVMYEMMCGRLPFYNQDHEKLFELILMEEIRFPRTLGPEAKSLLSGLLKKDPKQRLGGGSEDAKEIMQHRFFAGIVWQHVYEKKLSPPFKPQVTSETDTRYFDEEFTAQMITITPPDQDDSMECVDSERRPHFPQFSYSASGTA

SMILES	Kd [µM]
CCOc1cc2ncc(C#N)c(Nc3ccc(F)c(Cl)c3)c2cc1NC(=O)/C=C/CN(C)C [PELITINIB]	> 10
Nc1nc(Nc2ccc(S(N)(=O)=O)cc2)nn1C(=O)c1c(F)cccc1F [JNJ-7706621]	> 10
Oc1ccc(-c2nc(-c3ccncc3)c(-c3ccc(F)cc3)[nH]2)cc1 [SB-202190]	> 10
COCC(=O)NC/C=C/c1ccc2ncnc(Nc3ccc(Oc4ccc(C)nc4)c(C)c3)c2c1 [CP-724714]	> 10
NC(=O)c1ccc(-c2nc(-c3ccc4c(c3)OCO4)c(-c3ccccn3)[nH]2)cc1 [SB-431542]	> 10

target: Serine/threonine-protein kinase tousled-like 2 (Homo sapiens, UniProt Q86UE8)
Sequence (Q86UE8 whole entry): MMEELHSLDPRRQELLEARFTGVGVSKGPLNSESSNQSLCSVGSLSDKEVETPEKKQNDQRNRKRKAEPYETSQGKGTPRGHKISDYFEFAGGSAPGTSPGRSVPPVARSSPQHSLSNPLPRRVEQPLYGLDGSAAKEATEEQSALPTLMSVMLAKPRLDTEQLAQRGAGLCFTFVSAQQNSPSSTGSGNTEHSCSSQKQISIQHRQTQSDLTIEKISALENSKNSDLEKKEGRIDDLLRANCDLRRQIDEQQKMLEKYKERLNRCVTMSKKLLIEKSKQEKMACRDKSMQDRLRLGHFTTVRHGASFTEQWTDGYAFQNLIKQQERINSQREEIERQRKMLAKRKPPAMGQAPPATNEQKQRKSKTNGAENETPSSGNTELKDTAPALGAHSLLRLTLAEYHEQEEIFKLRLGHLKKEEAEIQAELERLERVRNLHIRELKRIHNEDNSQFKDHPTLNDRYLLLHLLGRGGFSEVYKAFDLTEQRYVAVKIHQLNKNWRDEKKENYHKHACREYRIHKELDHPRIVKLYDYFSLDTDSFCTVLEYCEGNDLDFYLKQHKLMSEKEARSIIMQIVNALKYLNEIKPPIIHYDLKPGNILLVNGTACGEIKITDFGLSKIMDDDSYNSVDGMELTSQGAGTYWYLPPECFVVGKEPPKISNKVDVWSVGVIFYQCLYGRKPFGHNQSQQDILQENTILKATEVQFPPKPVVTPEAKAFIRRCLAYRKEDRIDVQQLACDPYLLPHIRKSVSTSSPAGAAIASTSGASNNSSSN

SMILES	Kd [µM]
CCOc1cc2ncc(C#N)c(Nc3ccc(F)c(Cl)c3)c2cc1NC(=O)/C=C/CN(C)C [PELITINIB]	> 10
Oc1ccc(-c2nc(-c3ccncc3)c(-c3ccc(F)cc3)[nH]2)cc1 [SB-202190]	> 10
COCC(=O)NC/C=C/c1ccc2ncnc(Nc3ccc(Oc4ccc(C)nc4)c(C)c3)c2c1 [CP-724714]	> 10
NC(=O)c1ccc(-c2nc(-c3ccc4c(c3)OCO4)c(-c3ccccn3)[nH]2)cc1 [SB-431542]	> 10

target: Protein-tyrosine kinase 6 (Homo sapiens, UniProt Q13882)

SMILES	Kd [µM]
CCOc1cc2ncc(C#N)c(Nc3ccc(F)c(Cl)c3)c2cc1NC(=O)/C=C/CN(C)C [PELITINIB]	> 10
Nc1nc(Nc2ccc(S(N)(=O)=O)cc2)nn1C(=O)c1c(F)cccc1F [JNJ-7706621]	> 10
Oc1ccc(-c2nc(-c3ccncc3)c(-c3ccc(F)cc3)[nH]2)cc1 [SB-202190]	6.8
COCC(=O)NC/C=C/c1ccc2ncnc(Nc3ccc(Oc4ccc(C)nc4)c(C)c3)c2c1 [CP-724714]	> 10
NC(=O)c1ccc(-c2nc(-c3ccc4c(c3)OCO4)c(-c3ccccn3)[nH]2)cc1 [SB-431542]	> 10

target: Serine/threonine-protein kinase PAK 2 (Homo sapiens, UniProt Q13177)
Sequence (Q13177 whole entry): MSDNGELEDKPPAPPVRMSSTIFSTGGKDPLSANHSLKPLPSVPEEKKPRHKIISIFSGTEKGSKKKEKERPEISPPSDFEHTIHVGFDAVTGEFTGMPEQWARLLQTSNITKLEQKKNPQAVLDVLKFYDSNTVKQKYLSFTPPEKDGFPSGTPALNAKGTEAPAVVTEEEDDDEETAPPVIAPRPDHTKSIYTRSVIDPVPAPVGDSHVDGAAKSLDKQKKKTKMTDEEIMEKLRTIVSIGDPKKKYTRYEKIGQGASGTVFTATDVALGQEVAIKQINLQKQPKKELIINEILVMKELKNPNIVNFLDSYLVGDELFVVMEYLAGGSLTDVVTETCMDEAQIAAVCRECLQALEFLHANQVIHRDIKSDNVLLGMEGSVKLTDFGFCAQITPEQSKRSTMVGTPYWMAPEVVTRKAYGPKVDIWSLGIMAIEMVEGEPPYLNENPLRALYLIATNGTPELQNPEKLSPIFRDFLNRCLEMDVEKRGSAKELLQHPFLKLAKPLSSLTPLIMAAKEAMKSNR

SMILES	Kd [µM]
CCOc1cc2ncc(C#N)c(Nc3ccc(F)c(Cl)c3)c2cc1NC(=O)/C=C/CN(C)C [PELITINIB]	> 10
Nc1nc(Nc2ccc(S(N)(=O)=O)cc2)nn1C(=O)c1c(F)cccc1F [JNJ-7706621]	> 10
Oc1ccc(-c2nc(-c3ccncc3)c(-c3ccc(F)cc3)[nH]2)cc1 [SB-202190]	> 10
COCC(=O)NC/C=C/c1ccc2ncnc(Nc3ccc(Oc4ccc(C)nc4)c(C)c3)c2c1 [CP-724714]	> 10
NC(=O)c1ccc(-c2nc(-c3ccc4c(c3)OCO4)c(-c3ccccn3)[nH]2)cc1 [SB-431542]	> 10

target: Atypical kinase COQ8A, mitochondrial (Homo sapiens, UniProt Q8NI60)
Sequence (Q8NI60 whole entry): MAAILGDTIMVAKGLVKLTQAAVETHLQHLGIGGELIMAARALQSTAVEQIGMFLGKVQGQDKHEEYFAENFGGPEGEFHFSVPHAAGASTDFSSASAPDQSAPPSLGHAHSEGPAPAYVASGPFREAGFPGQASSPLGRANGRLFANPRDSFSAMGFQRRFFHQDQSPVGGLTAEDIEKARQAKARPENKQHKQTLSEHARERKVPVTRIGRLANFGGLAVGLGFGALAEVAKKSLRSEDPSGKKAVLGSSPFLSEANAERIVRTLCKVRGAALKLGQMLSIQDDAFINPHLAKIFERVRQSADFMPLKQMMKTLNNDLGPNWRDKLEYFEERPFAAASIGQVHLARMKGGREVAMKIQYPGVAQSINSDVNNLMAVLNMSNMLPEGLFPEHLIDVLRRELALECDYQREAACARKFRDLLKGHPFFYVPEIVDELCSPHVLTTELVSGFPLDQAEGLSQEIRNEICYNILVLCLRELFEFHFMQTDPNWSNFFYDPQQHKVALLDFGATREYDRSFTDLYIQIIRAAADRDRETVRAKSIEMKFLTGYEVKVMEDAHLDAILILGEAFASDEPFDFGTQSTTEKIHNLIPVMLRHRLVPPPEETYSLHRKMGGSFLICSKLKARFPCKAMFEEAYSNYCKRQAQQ

SMILES	Kd [µM]
CCOc1cc2ncc(C#N)c(Nc3ccc(F)c(Cl)c3)c2cc1NC(=O)/C=C/CN(C)C [PELITINIB]	> 10
Oc1ccc(-c2nc(-c3ccncc3)c(-c3ccc(F)cc3)[nH]2)cc1 [SB-202190]	> 10
COCC(=O)NC/C=C/c1ccc2ncnc(Nc3ccc(Oc4ccc(C)nc4)c(C)c3)c2c1 [CP-724714]	> 10
NC(=O)c1ccc(-c2nc(-c3ccc4c(c3)OCO4)c(-c3ccccn3)[nH]2)cc1 [SB-431542]	> 10

target: Casein kinase II subunit alpha' (Homo sapiens, UniProt P19784)
Sequence (P19784 whole entry): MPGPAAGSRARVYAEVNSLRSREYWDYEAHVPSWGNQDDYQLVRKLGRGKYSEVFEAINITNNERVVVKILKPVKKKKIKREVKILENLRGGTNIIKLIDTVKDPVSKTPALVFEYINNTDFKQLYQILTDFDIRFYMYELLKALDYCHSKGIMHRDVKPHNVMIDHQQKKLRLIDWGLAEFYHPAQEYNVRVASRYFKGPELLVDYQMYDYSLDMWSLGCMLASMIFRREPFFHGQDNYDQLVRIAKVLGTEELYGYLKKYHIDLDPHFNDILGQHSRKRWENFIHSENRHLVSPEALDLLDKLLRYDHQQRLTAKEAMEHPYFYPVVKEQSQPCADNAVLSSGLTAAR

SMILES	Kd [µM]
CCOc1cc2ncc(C#N)c(Nc3ccc(F)c(Cl)c3)c2cc1NC(=O)/C=C/CN(C)C [PELITINIB]	> 10
Oc1ccc(-c2nc(-c3ccncc3)c(-c3ccc(F)cc3)[nH]2)cc1 [SB-202190]	> 10
COCC(=O)NC/C=C/c1ccc2ncnc(Nc3ccc(Oc4ccc(C)nc4)c(C)c3)c2c1 [CP-724714]	> 10
NC(=O)c1ccc(-c2nc(-c3ccc4c(c3)OCO4)c(-c3ccccn3)[nH]2)cc1 [SB-431542]	> 10

target: T3, Receptor-interacting serine/threonine-protein kinase 1 (Homo sapiens, UniProt Q13546)
T3 sequence (Q13546 whole entry): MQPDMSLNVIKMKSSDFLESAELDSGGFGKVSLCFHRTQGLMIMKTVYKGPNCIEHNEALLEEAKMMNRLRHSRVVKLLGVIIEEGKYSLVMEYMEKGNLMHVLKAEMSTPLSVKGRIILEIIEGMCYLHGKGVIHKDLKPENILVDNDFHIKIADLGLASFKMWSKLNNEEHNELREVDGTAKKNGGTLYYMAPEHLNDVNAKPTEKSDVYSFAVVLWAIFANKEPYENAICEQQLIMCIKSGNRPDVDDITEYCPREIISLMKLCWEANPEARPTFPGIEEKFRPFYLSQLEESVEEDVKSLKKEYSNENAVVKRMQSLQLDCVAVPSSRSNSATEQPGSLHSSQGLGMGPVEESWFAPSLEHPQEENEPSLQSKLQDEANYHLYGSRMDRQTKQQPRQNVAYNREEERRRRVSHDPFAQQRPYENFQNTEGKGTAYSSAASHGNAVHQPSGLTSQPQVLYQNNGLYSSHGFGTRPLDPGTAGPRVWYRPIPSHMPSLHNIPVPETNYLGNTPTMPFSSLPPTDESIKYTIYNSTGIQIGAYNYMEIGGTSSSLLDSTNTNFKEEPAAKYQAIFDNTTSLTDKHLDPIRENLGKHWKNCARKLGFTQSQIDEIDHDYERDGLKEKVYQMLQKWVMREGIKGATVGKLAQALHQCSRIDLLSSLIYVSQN

SMILES	Kd [µM]
CCOc1cc2ncc(C#N)c(Nc3ccc(F)c(Cl)c3)c2cc1NC(=O)/C=C/CN(C)C [PELITINIB]	> 10
Nc1nc(Nc2ccc(S(N)(=O)=O)cc2)nn1C(=O)c1c(F)cccc1F [JNJ-7706621]	1.8
Oc1ccc(-c2nc(-c3ccncc3)c(-c3ccc(F)cc3)[nH]2)cc1 [SB-202190]	> 10
COCC(=O)NC/C=C/c1ccc2ncnc(Nc3ccc(Oc4ccc(C)nc4)c(C)c3)c2c1 [CP-724714]	> 10
NC(=O)c1ccc(-c2nc(-c3ccc4c(c3)OCO4)c(-c3ccccn3)[nH]2)cc1 [SB-431542]	> 10

target: T4, Serine/threonine-protein kinase 4 (Homo sapiens, UniProt Q13043)
T4 sequence (Q13043 whole entry): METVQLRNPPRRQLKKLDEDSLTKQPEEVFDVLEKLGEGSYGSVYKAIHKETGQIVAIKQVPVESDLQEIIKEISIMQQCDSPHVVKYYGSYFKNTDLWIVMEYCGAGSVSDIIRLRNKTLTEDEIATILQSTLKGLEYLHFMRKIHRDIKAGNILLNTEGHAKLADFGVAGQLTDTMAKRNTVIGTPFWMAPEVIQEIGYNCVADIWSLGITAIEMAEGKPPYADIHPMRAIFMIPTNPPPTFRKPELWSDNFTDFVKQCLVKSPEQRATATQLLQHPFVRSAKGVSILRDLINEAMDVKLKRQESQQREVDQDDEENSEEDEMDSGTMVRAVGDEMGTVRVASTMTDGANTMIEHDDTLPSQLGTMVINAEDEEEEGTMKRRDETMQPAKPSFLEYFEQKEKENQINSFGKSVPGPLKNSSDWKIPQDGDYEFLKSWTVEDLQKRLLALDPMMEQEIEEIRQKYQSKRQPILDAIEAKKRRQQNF

SMILES	Kd [µM]
Nc1nc(Nc2ccc(S(N)(=O)=O)cc2)nn1C(=O)c1c(F)cccc1F [JNJ-7706621]	0.13
Oc1ccc(-c2nc(-c3ccncc3)c(-c3ccc(F)cc3)[nH]2)cc1 [SB-202190]	> 10
COCC(=O)NC/C=C/c1ccc2ncnc(Nc3ccc(Oc4ccc(C)nc4)c(C)c3)c2c1 [CP-724714]	> 10
NC(=O)c1ccc(-c2nc(-c3ccc4c(c3)OCO4)c(-c3ccccn3)[nH]2)cc1 [SB-431542]	> 10
CCN1CCN(Cc2ccc(NC(=O)Nc3ccc(Oc4cc(NC)ncn4)cc3)cc2C(F)(F)F)CC1 [AST-487]	> 10
